Read-outs that look alike come from different tables or passages of the source. Blank lines part the entries; values can stand above or below the compound they belong to.
Columns and labels:
[1] = system: WiDr cells; assay: Growth inhibition, SRB assay, WiDr; format: cell-based; conditions: Homo sapiens, 72 h, read-out: IC50, 72 h drug exposure
Method: (§1) Briefly, cells were seeded in triplicate in 96-well plates at their pre-established optimal density (CHO cells: 2,500 cells/100 μL; WiDr and HT29: 3,500 cells/100 μL; WiDr-LF/LV, LS174T: 5,000 cells/100 μL; CaCo2, CaCo2-LF/LV, H292, H28 and MSTO-211H: 6,000 cells/100 μL; H460, SW948 and SW1398: 7,000 cells/100 μL) and were allowed to attach for ∼ 24 h at 37°C in 5% CO2 and 100% humidified incubator. Thereafter, 100 μL of drug dilution without LV, or with 5 μM l-LV/5 μM d-LV/10 μM dL-LV (or any LV alone) were added. Cells were allowed to grow for 72 h at 37°C in 5% CO2 and 100% humidity. The t = 0 h control plate consisted of cells plated on the same day as the other cells, but after 24 h at 37°C in 5% CO2 and 100% humidity, only 100 μL medium was added and the cells were fixed immediately with 50% trichloroacetic acid (TCA) in milliQ water (25 μL per well) and put at 4°C for at least 1 h. Plates were washed five times with water and dried. Cells were stained with the SRB protein dye (0.4% (w/v) in 1% acetic acid. Excess dye was washed away four times with 1% acetic acid and plates were dried again. 200 μL of Tris (10 mM Tris (hydroxymethyl)-aminomethane in MQ) was added and optical density (OD) was read at 492 nm after mixing 2–3 min on a plate shaker.

[2] = system: WiDr LF/LV cells; assay: Growth inhibition, SRB assay, WiDr LF/LV; format: cell-based, human; conditions: Homo sapiens, WiDr, 72 h, WiDr LF/LV, SRB, read-out: IC50, 72 h drug exposure
Method: as §1

[3] = system: CaCo2 cells; assay: Growth inhibition, SRB assay, CaCo2; format: cell-based; conditions: Homo sapiens, Caco-2, 72 h, read-out: IC50, 72 h drug exposure
Method: as §1

[4] = system: CaCo2 LF/LV cells; assay: Growth inhibition, SRB assay, CaCo2 LF/LV; format: cell-based; conditions: Homo sapiens, Caco-2, 72 h, read-out: IC50, 72 h drug exposure
Method: as §1

[5] = system: LS174T cells; assay: Growth inhibition, SRB assay, LS174T; format: cell-based; conditions: Homo sapiens, 72 h, read-out: IC50, 72 h drug exposure
Method: as §1

[6] = system: HT29 cells; assay: Growth inhibition, SRB assay, HT29; format: cell-based; conditions: Homo sapiens, HT-29, 72 h, read-out: IC50, 72 h drug exposure
Method: as §1

[7] = system: SW948 cells; assay: Growth inhibition, SRB assay, SW948; format: cell-based; conditions: Homo sapiens, SW948, 72 h, read-out: IC50, 72 h drug exposure
Method: as §1

[8] = system: SW1398 cells; assay: Growth inhibition, SRB assay, SW1398; format: cell-based; conditions: Homo sapiens, 72 h, read-out: IC50, 72 h drug exposure
Method: as §1

[9] = system: colon cancer cell lines; assay: Growth inhibition, SRB assay, panel of colon cancer cell lines; format: cell-based, human; conditions: Homo sapiens, read-out: IC50 range over colon cancer cell lines
Method: as §1

[10] = biological target: T1, thymidylate synthase (TS) (Homo sapiens, UniProt P04818); assay: TS in situ inhibition assay (TSIA) in colon cancer cells; format: cell-based
T1 construct: The principle of this assay is the measurement of TS enzymatic activity in intact cells; endogenous in cells; host or cells: colon cancer cell lines (WiDr, WiDr-LF, SW1398, LS174T and others)
T1 sequence (P04818 2-313 limits assumed): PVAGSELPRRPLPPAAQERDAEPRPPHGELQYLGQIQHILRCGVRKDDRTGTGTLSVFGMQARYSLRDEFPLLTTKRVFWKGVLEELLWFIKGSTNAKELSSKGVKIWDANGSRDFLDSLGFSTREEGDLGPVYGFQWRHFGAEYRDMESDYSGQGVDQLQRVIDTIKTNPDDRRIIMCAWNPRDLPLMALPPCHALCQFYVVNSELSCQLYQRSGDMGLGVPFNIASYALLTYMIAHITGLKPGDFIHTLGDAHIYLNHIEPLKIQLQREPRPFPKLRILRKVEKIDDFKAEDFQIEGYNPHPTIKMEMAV
From the text: The principle of this assay is the measurement of TS enzymatic activity in intact cells. Intact cells will readily internalize radioactively labelled [5-^3H]-deoxycytidine, which will be rapidly converted by deoxycytidine kinase (dCK) to [5-^3H]-dCMP and subsequently deaminated to [5-^3H]-dUMP, which will then serve as a substrate in the TS catalysed reaction to dTMP and ^3H2O; the quantity of ^3H2O formed over time is a measure of intracellular TS activity. […] This is because dCK has a higher, cell cycle independent activity than thymidine kinase 1, which is a cell cycle dependent enzyme. For this purpose, cancer cells were cultured in six wells plates at 2.5 × 10^5 cells/2 mL/well for 24 h. Thereafter, cells were exposed to drugs with or without the LV formulations at the indicated concentrations for 4 h. 2 h before the end of the incubation period [5-^3H]-2′-deoxycytidine (final concentration 1 µM) was added to the cells. […] In most cell lines we quantified dCK activity and dCK mRNA levels.

[11] = system: H28 cells; assay: Growth inhibition, SRB assay, H28 (MPM); format: cell-based, human; conditions: H28, SRB, read-out: IC50, 72 h drug exposure
Method: as §1

[12] = system: MSTO-211H cells; assay: Growth inhibition, SRB assay, MSTO-211H (MPM); format: cell-based, human; conditions: SRB, read-out: IC50, 72 h drug exposure
Method: as §1

[13] = system: H460 cells; assay: Growth inhibition, SRB assay, H460 (NSCLC); format: cell-based, human; conditions: H460, SRB, read-out: IC50, 72 h drug exposure
Method: as §1

[14] = system: H292 cells; assay: Growth inhibition, SRB assay, H292 (NSCLC); format: cell-based, human; conditions: H292, SRB, read-out: IC50, 72 h drug exposure
Method: as §1

[15] = system: NSCLC and MPM cell lines; assay: Growth inhibition, SRB assay, NSCLC and MPM cell lines; format: cell-based, human; conditions: 5 µM l-LV, H28, MSTO-211H, H460, H292
Method: as §1

[16] = system: CHO/C5 cells; assay: Growth inhibition, SRB assay, CHO/C5 (RFC-deficient); format: cell-based, Chinese hamster
Method: as §1

[17] = system: CHO/C5-MOCK cells; assay: Growth inhibition, SRB assay, CHO/C5-MOCK (empty vector); format: cell-based, Chinese hamster
Method: as §1

[18] = system: CHO/C5-PCFT cells; assay: Growth inhibition, SRB assay, CHO/C5-PCFT (PCFT-transfected); format: cell-based, Chinese hamster
Method: as §1

[19] = system: CHO/C5-hRFC cells; assay: Growth inhibition, SRB assay, CHO/C5-hRFC (human RFC transfected); format: cell-based, Chinese hamster; conditions: CHO/C5-hRFC
Method: as §1

[20] = system: AA8 cells; assay: Growth inhibition, SRB assay, AA8 (parental CHO); format: cell-based, Chinese hamster; conditions: for IC50: AA8 parental CHO
Method: as §1

[21] = Cricetulus griseus, antifolate alone

Compound: O=c1[nH]cc(F)c(=O)[nH]1 [5-FU, 5-fluorouracil]
IC50 ([1]; 5-FU + 5 µM d-LV): 4.21 ± 0.57 µM
IC50 ([1]; 5-FU + 5 µM l-LV): 1.95 ± 0.2 µM
IC50 ([1]; 5-FU + 10 µM dl-LV): 2.91 ± 1.06 µM
IC50 ([1]; 5-FU alone): 4.56 ± 0.34 µM
IC50 ([2]; 5-FU + 5 µM d-LV): 2.78 ± 0.34 µM
IC50 ([2]; 5-FU + 5 µM l-LV): 1.77 ± 0.15 µM
IC50 ([2]; 5-FU + 10 µM dl-LV): 1.75 ± 0.08 µM
IC50 ([2]; 5-FU alone): 1.83 ± 0.18 µM
IC50 ([3]; 5-FU + 5 µM d-LV): 3.04 ± 0.66 µM
IC50 ([3]; 5-FU + 5 µM l-LV): 3.04 ± 0.39 µM
IC50 ([3]; 5-FU + 10 µM dl-LV): 3.63 ± 0.38 µM
IC50 ([3]; 5-FU alone): 3.08 ± 0.27 µM
IC50 ([4]; 5-FU + 5 µM d-LV): 1.96 ± 0.62 µM
IC50 ([4]; 5-FU + 5 µM l-LV): 1.78 ± 0.18 µM
IC50 ([4]; 5-FU + 10 µM dl-LV): 1.78 ± 0.39 µM
IC50 ([4]; 5-FU alone): 2.05 ± 0.28 µM
IC50 ([5]; 5-FU + 5 µM d-LV): 10.5 ± 0.8 µM
IC50 ([5]; 5-FU + 5 µM l-LV): 8.11 ± 0.71 µM
IC50 ([5]; 5-FU + 10 µM dl-LV): 8.95 ± 0.72 µM
IC50 ([5]; 5-FU alone): 10.5 ± 0.82 µM
IC50 ([6]; 5-FU + 5 µM d-LV): 7.5 ± 0.5 µM
IC50 ([6]; 5-FU + 5 µM l-LV): 3.3 ± 0.2 µM
IC50 ([6]; 5-FU + 10 µM dl-LV): 3.8 ± 0.3 µM
IC50 ([6]; 5-FU alone): 7.9 ± 2.65 µM
IC50 ([7]; 5-FU + 5 µM d-LV): 3.85 ± 0.66 µM
IC50 ([7]; 5-FU + 5 µM l-LV): 2.63 ± 0.4 µM
IC50 ([7]; 5-FU + 10 µM dl-LV): 2.78 ± 0.29 µM
IC50 ([7]; 5-FU alone): 3.65 ± 0.41 µM
IC50 ([8]; 5-FU + 5 µM d-LV): 2.4 ± 0.68 µM
IC50 ([8]; 5-FU + 5 µM l-LV): 1.28 ± 0.18 µM
IC50 ([8]; 5-FU + 10 µM dl-LV): 1.44 ± 0.37 µM
IC50 ([8]; 5-FU alone): 2.99 ± 0.47 µM
IC50 ([9]; 5-FU + 5 µM d-LV): 2 to 10.5 µM
IC50 ([9]; 5-FU + 5 µM l-LV): 1.3 to 8.1 µM
IC50 ([9]; 5-FU + 10 µM dl-LV): 1.4 to 8.9 µM
IC50 ([9]; 5-FU only): 1.8 to 10.5 µM
IC50 ([10]; SW1398, 4 h, 5FU alone): 4.14 ± 0.24 µM
IC50 ([10]; WiDr, 4 h, 5FU alone): 3.76 ± 0.35 µM
IC50 ([10]; WiDr-LF, 4 h, 5FU alone): 3.67 ± 0.33 µM

IC50 ([13]; antifolate + 5 µM l-LV): 52.7 µM
IC50 ([13]; Homo sapiens, NCI-H460, 72 h, antifolate alone): 0.302 ± 0.012 µM
IC50 ([14]; antifolate + 5 µM l-LV): 17 µM
IC50 ([14]; Homo sapiens, NCI-H292, 72 h, antifolate alone): 0.103 ± 0.012 µM
IC50 ([10]; WiDr, 4 h, antifolate alone): 0.175 ± 0.075 µM
Compound: Nc1nc2[nH]cc(CCc3ccc(C(=O)N[C@@H](CCC(=O)O)C(=O)O)cc3)c2c(=O)[nH]1 [PMX, pemetrexed]
IC50 ([11]; antifolate + 5 µM l-LV): 34.3 µM
IC50 ([11]; Homo sapiens, NCI-H28, 72 h, antifolate alone): 0.28 ± 0.048 µM
IC50 ([12]; Homo sapiens, 72 h, antifolate alone): 0.143 ± 0.014 µM
IC50 ([12]; antifolate + 5 µM l-LV): 21 µM
l-LV-mediated increase in the IC50 values, range over cell lines [15]: 144-211 fold
IC50 [16, 21]: 3.1 µM
IC50 ([16]; antifolate + 5 µM l-LV): 59.6 µM
IC50 [17, 21]: 42 µM
IC50 ([17]; antifolate + 5 µM l-LV): > 100 µM
IC50 [18, 21]: 10.6 µM
IC50 ([18]; antifolate + 5 µM l-LV): 49.2 µM
IC50 ([19]; antifolate + 5 µM l-LV): 29.3 µM
IC50 [19, 21]: 0.046 µM
Protection by l-LV, increase of the IC50 value ([20]; AA8 cells, 5 µM l-LV): 94 fold
IC50 ([20]; antifolate + 5 µM l-LV): 3.5 µM
IC50 [20, 21]: 0.037 µM

Source: paper PMC11371747, “The role of l-leucovorin uptake and metabolism in the modulation of 5-fluorouracil efficacy and antifolate toxicity” (Frontiers in Pharmacology, 2024)
